Experimental data published in PubChem BioAssay (NCI).
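The compound was tested at five concentrations on cells cultured in 96-well plates, with a 48-hour exposure period. GI50 = concentration required for 50% inhibition of growth. TGI: concentration producing complete growth inhibition.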

Columns and labels:
Test in all cases: NCI-60 cell line screen, 48 h
[1] = system: M14 melanoma
[2] = system: RXF 393 renal
[3] = system: NCI-H522 lung
[4] = system: SF-295 CNS
[5] = system: HS 578T breast
[6] = system: HL-60(TB) leukemia
[7] = system: HOP-92 NSCLC
[8] = system: OVCAR-3 ovarian
[9] = system: CCRF-CEM leukemia
[10] = system: NCI-H23 lung
[11] = system: SK-MEL-5 melanoma
[12] = system: MDA-MB-435
[13] = system: MDA-MB-231 breast
[14] = system: SNB-19 CNS
[15] = system: U251 CNS
[16] = system: EKVX NSCLC
[17] = system: MCF7 breast
[18] = system: IGROV1 ovarian
[19] = system: NCI-H460 lung
[20] = system: TK-10 renal
[21] = system: SN12C renal
[22] = system: UACC-62 melanoma
[23] = system: ACHN renal
[24] = system: HCT-15 colon
[25] = system: MALME-3M melanoma
[26] = system: A498 renal
[27] = system: LOX IMVI melanoma
[28] = system: SNB-75 CNS

## COc1ccc2nc(C)cc(Sc3nc4ccccc4s3)c2c1
[1]
  GI50: 1920 nM
  TGI: 9340 nM
[2]
  GI50: 2630 nM
  TGI: 8190 nM
[3]
  GI50: 1310 nM
  TGI: 3150 nM
[4]
  GI50: 2480 nM
  TGI: 13200 nM
[5]
  GI50: 923 nM
  TGI: 3570 nM
[6]
  GI50: 533 nM
  TGI: 2630 nM
[7]
  GI50: 475 nM
  TGI: 6250 nM
[8]
  GI50: 1470 nM
  TGI: 3300 nM
[9]
  GI50: 377 nM
  TGI: 2650 nM
[10]
  GI50: 1780 nM
  TGI: 7560 nM
[11]
  GI50: 2880 nM
  TGI: 13500 nM
[12]
  GI50: 1760 nM
  TGI: 5390 nM
[13]
  GI50: 1050 nM
  TGI: 5930 nM
[14]
  GI50: 3460 nM
  TGI: 28800 nM
[15]
  GI50: 1000 nM
  TGI: 3060 nM
[16]
  GI50: 1610 nM
  TGI: 8000 nM
[17]
  GI50: 1450 nM
  TGI: 11100 nM
[18]
  GI50: 2200 nM
  TGI: 13900 nM
[19]
  GI50: 1890 nM
  TGI: 5350 nM
[20]
  GI50: 1400 nM
  TGI: 5470 nM
[21]
  GI50: 1700 nM
  TGI: 7060 nM
[22]
  GI50: 717 nM
  TGI: 7510 nM
[23]
  GI50: 1210 nM
  TGI: 5770 nM
[24]
  GI50: 953 nM
  TGI: 3730 nM
[25]
  GI50: 426 nM
  TGI: 11900 nM
[26]
  GI50: 1370 nM
  TGI: 4870 nM
[27]
  GI50: 1190 nM
  TGI: 3370 nM
[28]
  GI50: 885 nM
  TGI: 5120 nM
